Ends that are not written are not given here.

Results on five compounds are retold here after patent publication US7824691B2 (priority 2005, dated 2010).

Series [1] deals with S. aureus ATCC 25923. Briefly: Murine sepsis model 1, live S. aureus i.v. challenge (lethality, bacteremia). The class given is in vivo, BALB/c male mice. The settings on record: for Lethality (%) / Lethality (dead/total): monitored 72 h; for Quantitative Blood Culture (CFU/ml), mean ± S.D. / Qualitative Blood Culture (positive/total): blood 24 h after challenge. The method, then: Animals: BALB/c male mice weighing 23 to 30 g were used for all the experiments. All animals were housed in individual cages under constant temperature (22° C.) and humidity with a 12 hour light/dark cycle and had access to food and water ad libitum throughout the study. The study was approved by the animal research ethics committee of the I.N.R.C.A.-I.R.R.C.S., Polytechnic University of Marche, Ancona, Italy.
Preparation of the inoculum: S. aureus ATCC 25923 were grown overnight at 37° C. in brain-heart infusion broth. When bacteria were in the log phase of growth the suspension was centrifuged at 1000× g for 15 min, the supernatant was discarded, and the bacteria were resuspended in sterile saline to achieve a concentration of approximately 1×10^7 CFU/mL.
(§1) Implantation of inoculum: All animals were anesthetized by an intramuscular injection of ketamine (30 mg/kg of body weight). Mice were injected intravenously (i.v.) via the tail vein with 0.2 mL of the above mentioned bacterial suspensions: (i) 2.0×10^6 CFU of S. aureus ATCC 25923 (model 1), or (ii) 5.0×10^8 heat-killed cells (model 2) on day 0 and monitored for 72 hours.
(§2) Antibiotic therapy. […] Each group included 20 mice. The animals were returned to individual cages and monitored for the subsequent 72 hours. The endpoints of the study were lethality rates (model 1), quantitative blood cultures (bacteremia, model 1), and TNF-α or IL-6 plasma levels (model 2).
Evaluation of treatment: Blood samples for culture were obtained from the tail vein by aseptic percutaneous puncture 24 h after bacterial challenge. The animals that died before this time were not tested. To perform quantitative bacterial cultures, blood samples were serially diluted, a 0.1 mL volume of each dilution was spread on blood agar plates and cultured at 35° C. for 48 h, and colony forming units (CFU) were counted. The limit of detection was <10 CFU/mL.
Statistical analysis: Lethality rates between groups were compared by use of Fisher's exact test. Data from quantitative blood cultures were presented as means±standard deviations (SDs) of the mean; statistical comparisons between groups were made by analysis of variance. Post hoc comparisons were performed by Bonferroni's test. Plasma IL-6 and TNF-α mean values were compared between groups by analysis of variance. Significance was accepted when the p value was <0.05.

A short description of series [2]: Toxicity in supplementary treated groups without challenge. The settings on record: supplementary treated groups without previous infection. The class given is in vivo, BALB/c male mice.
Series [3] deals with RAW264.7 cells. Briefly: LTA-induced TNF-α production by RAW264.7 cells (ELISA). The class given is cell-based, murine. As to conditions: 20 μg/mL inactive RIP peptide analogue; data not shown. The procedure: (§3) Cytokine production by RAW 264.7 cells: The murine macrophage cell line RAW264.7 was obtained from American Type Culture Collection (ATCC) and maintained in RPMI supplemented with 10% fetal calf serum (FCS), 2 mM L-glutamine, 100 units/mL penicillin and 100 μg/mL streptomycin in a humidified 37° C. incubator. RAW264.7 cells were plated in 24-well dishes at 10^6 cells/well in the above medium and incubated at 37° C. in 5% CO2 overnight. RPMI was aspirated from cells grown overnight and replaced with fresh medium. […] Peptides were added simultaneously with LTA. After 24 hours incubation, the supernatants were removed and tested for TNF-α production by enzyme linked immunosorbent assay (ELISA; Euroclone Life Sciences, Milan, Italy) according to the manufacturer's specification. All samples were run in duplicate. The detection limit for TNF-α was <0.025 ng/mL.
For orientation: An ELISA detects its analyte on a solid surface through an enzyme-linked reagent.

Series [4] relates to RAW264.7 cells. The series is described as follows: LTA-stimulated NO production by RAW264.7 cells (Griess reagent). The settings on record: 20 μg/mL inactive RIP peptide analogue; data not shown. The class given is cell-based, murine. The method, then:
as §3
Nitric oxide (NO) detection: RAW264.7 cells were cultured as described above. The amount of LTA-stimulated production of NO in the supernatant over 24 hours was estimated from the accumulation of the stable NO metabolite nitrite with Griess reagent (Molecular Probes, Eugene, Oreg.) according to the manufacturer's instructions.
Background: Griess reagent forms a coloured azo dye with nitrite.

Series [5] has as its system TNF-α plasma levels. Briefly: Murine sepsis model 2, heat-killed S. aureus challenge, plasma TNF-α. The class given is in vivo, BALB/c male mice. The procedure: (§4) Heat-killed S. aureus were prepared by boiling for 10 min and sonicating a bacterial suspension for 1 min in phosphate buffered saline containing approximately 2.5×10^9 cells/mL.
as §1, §2
(§5) Plasma TNF-α and IL-6 levels. […] TNF-α levels were measured with a solid phase sandwich enzyme-linked immunosorbent assay (ELISA). The intensity of the color was measured in a MR 700 Microplate Reader (Dynatech Laboratories, Guernsey, United Kingdom) by reading the absorbance at 450 nm. […] The plasma concentrations of IL-6 were also determined by ELISA, as described above. Quantification was performed on the basis of a standard curve. […]

The test system of series [6] is IL-6 plasma levels. Briefly: Murine sepsis model 2, heat-killed S. aureus challenge, plasma IL-6. The format is in vivo, BALB/c male mice. The procedure: as §4, §1, §2, §5
Setting [7] is: model 1a: i.v. treatment immediately after challenge.
The mark [8] stands for this setting: model 1a: treatment immediately after challenge.
[9] abbreviates: model 1b: i.v. treatment 6 h (360 min) after challenge.
Where [10] appears, read: model 1b: treatment 6 h after challenge.

For `C[C@@H](O)[C@H]1C(=O)N2C(C(=O)O)=C(SCCN=CN)C[C@H]12` [imipenem], the entries for the “Lethality (%)” value in series [1] (setting [7]) and in series [1] (setting [9]) were 30% and 35%, respectively. Besides, the “Quantitative Blood Culture (CFU/ml), mean ± S.D.” value was 5.8 ± 1.4 × 10^2de CFU/ml in series [1] (setting [8]) and 7.1 ± 1.7 × 10^2de CFU/ml in series [1] (setting [10]).

Consider “GGLRSLGRKILRAWKKYGPIIVPIIRI-NH2 [BMAP-28]”, for which, in series [2], the “changes in physiological parameters” value is listed as “no changes in physiological parameters” and the drug-related adverse effects entry was “none of the animals had clinical evidence of drug-related adverse effects”.

In the case of “YKPETNF-NH2 [inactive RIP peptide analogue]”, in series [3], the “decrease of LTA-induced TNF-α” value is reported as “did not demonstrate decrease”. Further, the “decrease of LTA-stimulated NO” value in series [4] is given as “did not demonstrate decrease”.

In the case of `CN[C@H](CC(C)C)C(=O)N[C@H]1C(=O)N[C@@H](CC(N)=O)C(=O)N[C@H]2C(=O)N[C@H]3C(=O)N[C@H](C(=O)N[C@H](C(=O)O)c4cc(O)cc(O)c4-c4cc3ccc4O)[C@H](O)c3ccc(c(Cl)c3)Oc3cc2cc(c3O[C@@H]2O[C@H](CO)[C@@H](O)[C@H](O)[C@H]2O[C@H]2C[C@](C)(N)[C@H](O)[C@H](C)O2)Oc2ccc(cc2Cl)[C@H]1O` [vancomycin], the “Lethality (%)” value in series [1] (setting [7]) and in series [1] (setting [9]) was 20% throughout. The “Lethality (dead/total)” value in series [1] (setting [7]) and in series [1] (setting [9]) was 4/20 each time. Further, the “Qualitative Blood Culture (positive/total)” value in series [1] (setting [8]) and in series [1] (setting [10]) was 5/20^df throughout. Moreover, the “Quantitative Blood Culture (CFU/ml), mean ± S.D.” value was 7.8±1.8×10^1 CFU/ml in series [1] (setting [8]); 7.8 ± 1.8 × 10^1deg CFU/ml in series [1] (model 1a: treatment immediately after challenge, listed as VAN); 9.0 ± 2.8 × 10^1deg CFU/ml in series [1] (setting [10]). Moreover, the TNF-α plasma levels result in series [5] (model 2a: drugs at 0 min after heat-killed cell challenge, FIG. 3A) is listed as “No substantial differences”. Further, the “plasma TNF-α concentrations” value in series [5] (model 2b: drugs 360 min after heat-killed bacterial challenge, FIG. 3B) is reported as “constant increase”. For the same compound, the IL-6 plasma levels entry in series [6] (model 2a: drugs at 0 min after heat-killed cell challenge, FIG. 4A) is “No substantial differences”. Besides, the “plasma IL-6 concentrations” value in series [6] (model 2b: drugs 360 min after heat-killed bacterial challenge, FIG. 4B) is on record as “constant increase”.

YSPWTNF-NH2 [RIP, YSPWTNF-NH2]: in series [2], the “changes in physiological parameters” value was “no changes in physiological parameters” and the drug-related adverse effects entry was “none of the animals had clinical evidence of drug-related adverse effects”.
